In one experiment the test system is SAPK. The experiment can be described thus: Human kinase panel, overall conclusion: SAPK. It counts as biochemical. How it is done: (§1) Enzymatic activity of various human kinases was assayed in the presence and the absence of pirfenidone. Percent enzyme activity of various human enzymes in the presence of substrate and pirfenidone are shown in FIGS. 1-5, and in Table 2, below, where “percent enzyme activity” is the percent of the control activity (e.g., in the absence of pirfenidone): […]

The subject of the next experiment is other kinases tested. Nature of the experiment: Human kinase panel, overall conclusion: other kinases. It counts as biochemical. How it is done: as §1

With `Cc1ccc(=O)n(-c2ccccc2)c1` [pirfenidone, 5-methyl-1-phenyl-2-(1H)-pyridone], the “Inhibition of SAPK (conclusion from Table 2 data)” value with SAPK is “is an inhibitor of SAPK”. The “Inhibition of other kinases tested (conclusion from Table 2 data)” value in the experiment with other kinases tested is listed as “does not substantially inhibit”.

These data come from patent publication US7407973B2, “Use of pirfenidone in therapeutic regimens” (Intermune, Inc., priority 2003, dated 2008).
